{"source": "patent US20190358264A1", "about": "“METHODS OF TREATING DISEASES ASSOCIATED WITH ILC2 CELLS” (Limm Therapeutics, SA, priority 2016, published 2019)", "format_in_all_cases": "cell-based, mouse", "key": {"[1]": {"system": "ILC2s", "assay": "In vitro activation of purified ILC2s, type 2 cytokine protein by intracellular staining", "settings": "purified ILC2s, Nmur1 competent vs deficient; NMUR1-dependent", "method": "FIGS. 10a-10d: FIG. 10a, Ki67 expression in intestinal ILC2s after an overnight in vitro stimulation with NmU23 alone (100 ng/mL, Phoenix Pharmaceutical) or NmU23 together with the survival cytokines Interleukin (IL)-2 and/or IL-7 (10 ng/mL). FIG. 10b, Ki67 expression in intestine ILC2 after in vivo administration of NmU23 (4 g/day during 2 days). n=5. FIG. 10c, ILC2-derived type 2 cytokines (IL-5, IL-13 and Amphiregulin (Areg)) in sorted intestine ILC2 after an overnight stimulation with NmU23, mouse recombinant IL-25 or IL-33 (R&D) (10, 50 and 100 ng/mL). Negative control: unstimulated ILC2, Positive control: ILC2 activated with phorbol 12-myristate 13-acetate (PMA, 50 ng/ml) plus ionomycin (500 ng/ml). n=3. FIG. 10d, Dot plots representative of the cytokine production with increasing dose of NmU23, rIL-25 and rIL-33. *P<0.05; **P<0.01; ***P<0.001; ****P<0.0001; ns not significant.\nFor in vitro experiments, purified lung and small intestine lamina propria ILC2s were FBS starved for 2 hours prior to stimulation and cultured in complete RPMI (supplemented with 10% foetal bovine serum (FBS), 1% hepes, sodium pyruvate, glutamine, streptomycin and penicillin) at 37° C. For mRNA analysis, ILC2s were stimulated overnight with recombinant mouse Neuromedin U 23 peptide (NmU23, 100 ng/mL; Phoenix pharmaceuticals). Both NmU23-stimulated and control ILC2s were cultured in the presence of IL-2 and IL-7 (10 ng/mL; Peprotech). ILC2s were lysed using RLT buffer (Qiagen). For cytokine protein analysis, ILC2s were incubated exclusively with brefeldin A (eBioscience) for 12 hours prior to intracellular staining. For in vivo experiments, B6 mice were injected intraperitoneal with NmU23 peptide (2 g/day) during Nippostrongylus brasiliensis infection or with a single dose of NmU23 (20 μg) and analyzed after 8 hours. Control mice were treated with PBS alone.\nIntracellular staining was performed using IC fixation/permeabilization kit (eBioscience). Flow cytometry analysis and cell sorting were performed using BD LSRFORTESSA and BD FACSAria flow cytometers (BD Biosciences). […]"}, "[2]": {"system": "Ca^2+ influx in ILC2s", "assay": "Calcium signaling (Fluo-4) in purified ILC2s", "settings": "NmU23 added 60 seconds after baseline; small intestine ILC2s", "method": "Purified ILC2s from the small intestine were cultured with IL-2 and IL-7 (10 ng/mL) and FBS deprived for 6 hours prior to calcium signaling experiments. ILC2s were stained with Fluo-4 Direct Calcium Assay Kit (Thermo Fisher Scientific) according to manufacturer's protocol. Calcium (Ca^2+) influx, represented by the Fluo-4 AM, was recorded over time on a BD Accuri C6 (BD Biosciences) flow cytometer as previously reported^36. The recombinant mouse NmU23 was added 60 seconds after ILC2 baseline recording. Data was represented by the mean values of Ca^2+ influx kinetics between the ILC2 baseline response and the peak of response after recombinant mouse NmU23 addition."}, "[3]": {"system": "ERK1/2", "assay": "ERK phosphorylation in purified ILC2s activated with NmU23", "settings": "NmU23 100 ng/mL, 10 minutes, with IL-2 and IL-7", "method": "Purified ILC2s from small intestine and lung were FBS starved for 2 hours before in vitro activation with NmU23 at 37° C. To test for ERK phosphorylation (Cell Signaling Technology), purified ILC2s were activated with NmU23 (100 ng/mL; Phoenix pharmaceuticals) in the presence of IL-2 and IL-7 (10 ng/mL; Peprotech) for 10 minutes prior to intracellular staining. To test ERK, calcineurin and NFAT activation, ILC2s were cultured for 1 hour with their respective inhibitor and then stimulated with NmU23 overnight before mRNA expression analysis. ERK inhibitor—PD98059 (Sigma); Calcineurin inhibitor—FK506 (Tocris Bioscience); NFAT inhibitor—11R-VIVIT (Tocris Bioscience)."}}, "data": [{"substance": "recombinant mouse Neuromedin U 23 peptide (FKAEYQSPSVGQSKGYFLFRPRN; listed as Mus musculus) [NmU23, NMUR1 agonist neuropeptide, Phoenix pharmaceuticals]", "values": [{"measurement": "expression of the type 2 cytokine proteins IL-5 and IL-13 in ILC2s", "setting": "[1]", "value": "potent expression"}, {"measurement": "Ca^2+ influx in ILC2s (Fluo-4 AM intensity)", "setting": "[2]", "value": "immediate and robust Ca^2+ influx"}, {"measurement": "ERK1/2 activation (pERK) in ILC2s", "setting": "[3]", "value": "immediate and efficient ERK1/2 activation"}]}]}
